Measured values reported in PubChem BioAssay AID1919007 (Molecular Pharmacology Branch, DTP, NCI, 2023).
Where “and” joins values, the source holds several entries; their conditions need not be identical. Identical values can stand only once.

Test system: A498 complex spheroids with HUVEC/MSC, growth
Test: Anticancer human tumor A498 cell line growth inhibition [AhR];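 also: seven day exposure starting three days after spheroid seeding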;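 as to viability, T/C: luminescence signal used as a surrogate for viable cells; luminescence viability scaled so 100% equals DMSO vehicle wells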
Conditions: for viability, T/C: stronger effect = lower value
Outline: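 Complex tumor spheroids co-cultured with HUVEC and human MSC stroma; AhR antagonists tested in combination with standard-of-care and investigational agents. Top concentration at or near clinical Cmax (else 10 microM), half-log dilutions; growth expressed as percent test/control.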

[1] = curve of first compound, second compound 0.1 µM
[2] = curve of first compound, second compound 0.316 µM
[3] = curve of first compound, second compound 1 µM
[4] = curve of first compound, second compound 3.16 µM
[5] = curve of first compound, second compound 10 µM
[6] = second compound 0.1 µM, first compound 0.0316 µM
[7] = second compound 0.1 µM, first compound 0.1 µM
[8] = second compound 0.1 µM, first compound 0.316 µM
[9] = second compound 0.1 µM, first compound 1 µM
[10] = second compound 0.1 µM, first compound 3.16 µM
[11] = second compound 0.1 µM, first compound 10 µM
[12] = second compound 0.316 µM, first compound 0.0316 µM
[13] = second compound 0.316 µM, first compound 0.1 µM
[14] = second compound 0.316 µM, first compound 0.316 µM
[15] = second compound 0.316 µM, first compound 1 µM
[16] = second compound 0.316 µM, first compound 3.16 µM
[17] = second compound 0.316 µM, first compound 10 µM
[18] = second compound 1 µM, first compound 0.0316 µM
[19] = second compound 1 µM, first compound 0.1 µM
[20] = second compound 1 µM, first compound 0.316 µM
[21] = second compound 1 µM, first compound 1 µM
[22] = second compound 1 µM, first compound 3.16 µM
[23] = second compound 1 µM, first compound 10 µM
[24] = second compound 3.16 µM, first compound 0.0316 µM
[25] = second compound 3.16 µM, first compound 0.1 µM
[26] = second compound 3.16 µM, first compound 0.316 µM
[27] = second compound 3.16 µM, first compound 1 µM
[28] = second compound 3.16 µM, first compound 3.16 µM
[29] = second compound 3.16 µM, first compound 10 µM
[30] = second compound 10 µM, first compound 0.0316 µM
[31] = second compound 10 µM, first compound 0.1 µM
[32] = second compound 10 µM, first compound 0.316 µM
[33] = second compound 10 µM, first compound 1 µM
[34] = second compound 10 µM, first compound 3.16 µM
[35] = second compound 10 µM, first compound 10 µM

## CC1COCCN1c1cc(C2(S(C)(=N)=O)CC2)nc(-c2ccnc3[nH]ccc23)n1 (stereo not drawn)
Compound 0.0316 µM
  viability, T/C: 106% and 101% (2×)
Compound 0.1 µM
  viability, T/C: 111% and 103% and 107%
Compound 0.316 µM
  viability, T/C: 104% and 99.8% and 95.7%
Compound 1 µM
  viability, T/C: 92.2% and 72.5% and 72.7%
Compound 3.16 µM
  viability, T/C: 61% and 46.5% and 37%
Compound 10 µM
  viability, T/C: 29% and 24.8% and 19.5%
Curve of compound
  IC50: 4680 nM and 2570 nM and 2070 nM

## CCN(c1cc(-c2ccc(CN3CCOCC3)cc2)cc(C(=O)NCc2c(C)cc(C)[nH]c2=O)c1C)C1CCOCC1 + CC(CO)NC(=O)c1cc(-c2ccc(Cl)cc2)nn(-c2cnn(C)c2)c1=O
[1]
  IC50: > 3000 nM
[2]
  IC50: > 3000 nM
[3]
  IC50: > 3000 nM
[4]
  IC50: > 3000 nM
[5]
  IC50: > 3000 nM
Second compound 0.1 µM, first compound 0.00949 µM
  viability, T/C: 99.8%
Second compound 0.1 µM, first compound 0.03 µM
  viability, T/C: 95%
Second compound 0.1 µM, first compound 0.0949 µM
  viability, T/C: 97.8%
Second compound 0.1 µM, first compound 0.3 µM
  viability, T/C: 95.6%
Second compound 0.1 µM, first compound 0.949 µM
  viability, T/C: 102%
Second compound 0.1 µM, first compound 3 µM
  viability, T/C: 103%
Second compound 0.316 µM, first compound 0.00949 µM
  viability, T/C: 93.2%
Second compound 0.316 µM, first compound 0.03 µM
  viability, T/C: 101%
Second compound 0.316 µM, first compound 0.0949 µM
  viability, T/C: 97.8%
Second compound 0.316 µM, first compound 0.3 µM
  viability, T/C: 93.3%
Second compound 0.316 µM, first compound 0.949 µM
  viability, T/C: 96.1%
Second compound 0.316 µM, first compound 3 µM
  viability, T/C: 98.9%
Second compound 1 µM, first compound 0.00949 µM
  viability, T/C: 94.4%
Second compound 1 µM, first compound 0.03 µM
  viability, T/C: 95.8%
Second compound 1 µM, first compound 0.0949 µM
  viability, T/C: 103%
Second compound 1 µM, first compound 0.3 µM
  viability, T/C: 92.3%
Second compound 1 µM, first compound 0.949 µM
  viability, T/C: 95.4%
Second compound 1 µM, first compound 3 µM
  viability, T/C: 97.4%
Second compound 3.16 µM, first compound 0.00949 µM
  viability, T/C: 84.3%
Second compound 3.16 µM, first compound 0.03 µM
  viability, T/C: 96.2%
Second compound 3.16 µM, first compound 0.0949 µM
  viability, T/C: 101%
Second compound 3.16 µM, first compound 0.3 µM
  viability, T/C: 88.5%
Second compound 3.16 µM, first compound 0.949 µM
  viability, T/C: 85.6%
Second compound 3.16 µM, first compound 3 µM
  viability, T/C: 102%
Second compound 10 µM, first compound 0.00949 µM
  viability, T/C: 72.7%
Second compound 10 µM, first compound 0.03 µM
  viability, T/C: 77.5%
Second compound 10 µM, first compound 0.0949 µM
  viability, T/C: 83.3%
Second compound 10 µM, first compound 0.3 µM
  viability, T/C: 75.3%
Second compound 10 µM, first compound 0.949 µM
  viability, T/C: 70.3%
Second compound 10 µM, first compound 3 µM
  viability, T/C: 75.9%

## CC1COCCN1c1cc(C2(S(C)(=N)=O)CC2)nc(-c2ccnc3[nH]ccc23)n1 (stereo not drawn) + Cc1ccccc1N=Nc1ccc(NC(=O)c2ccnn2C)c(C)c1
[1]
  IC50: 2510 nM
[2]
  IC50: 2070 nM
[3]
  IC50: 1820 nM
[4]
  IC50: 1880 nM
[5]
  IC50: 2030 nM
[6]
  viability, T/C: 84.6%
[7]
  viability, T/C: 85.4%
[8]
  viability, T/C: 84.3%
[9]
  viability, T/C: 66%
[10]
  viability, T/C: 46.6%
[11]
  viability, T/C: 23.2%
[12]
  viability, T/C: 101%
[13]
  viability, T/C: 90.5%
[14]
  viability, T/C: 88.3%
[15]
  viability, T/C: 68.1%
[16]
  viability, T/C: 38.9%
[17]
  viability, T/C: 25.7%
[18]
  viability, T/C: 81.7%
[19]
  viability, T/C: 78.2%
[20]
  viability, T/C: 82.2%
[21]
  viability, T/C: 61.7%
[22]
  viability, T/C: 38.2%
[23]
  viability, T/C: 21.2%
[24]
  viability, T/C: 83%
[25]
  viability, T/C: 82.4%
[26]
  viability, T/C: 77.2%
[27]
  viability, T/C: 64%
[28]
  viability, T/C: 38.5%
[29]
  viability, T/C: 24.2%
[30]
  viability, T/C: 82.6%
[31]
  viability, T/C: 81.5%
[32]
  viability, T/C: 78.7%
[33]
  viability, T/C: 67.8%
[34]
  viability, T/C: 39%
[35]
  viability, T/C: 25%

## CC(CO)NC(=O)c1cc(-c2ccc(Cl)cc2)nn(-c2cnn(C)c2)c1=O (stereo not drawn)
Compound 0.1 µM
  viability, T/C: 92.3% [middle of 20 runs]
Compound 0.316 µM
  viability, T/C: 90.5% [middle of 21 runs]
Compound 1 µM
  viability, T/C: 85.9% [middle of 21 runs]
Compound 3.16 µM
  viability, T/C: 83.2% [middle of 19 runs]
Compound 10 µM
  viability, T/C: 68.4% [middle of 19 runs]
Compound alone, run of 08/08/2022
  IC50: > 10000 nM

## CC(C)c1c(-c2ccccc2)nc2c(C#N)c[nH]n2c1=O + CC(CO)NC(=O)c1cc(-c2ccc(Cl)cc2)nn(-c2cnn(C)c2)c1=O
[1]
  IC50: > 10000 nM
[2]
  IC50: > 10000 nM
[3]
  IC50: > 10000 nM
[4]
  IC50: > 10000 nM
[5]
  IC50: > 10000 nM
[6]
  viability, T/C: 94.6%
[7]
  viability, T/C: 93.3%
[8]
  viability, T/C: 93.3%
[9]
  viability, T/C: 96.4%
[10]
  viability, T/C: 101%
[11]
  viability, T/C: 103%
[12]
  viability, T/C: 91.9%
[13]
  viability, T/C: 90.5%
[14]
  viability, T/C: 94.6%
[15]
  viability, T/C: 83.1%
[16]
  viability, T/C: 87.3%
[17]
  viability, T/C: 88.5%
[18]
  viability, T/C: 85.8%
[19]
  viability, T/C: 92.6%
[20]
  viability, T/C: 90.7%
[21]
  viability, T/C: 76.5%
[22]
  viability, T/C: 87.1%
[23]
  viability, T/C: 90.7%
[24]
  viability, T/C: 81.5%
[25]
  viability, T/C: 86.1%
[26]
  viability, T/C: 96.2%
[27]
  viability, T/C: 75.3%
[28]
  viability, T/C: 75.9%
[29]
  viability, T/C: 81.5%
[30]
  viability, T/C: 61.8%
[31]
  viability, T/C: 63.3%
[32]
  viability, T/C: 70.5%
[33]
  viability, T/C: 58.9%
[34]
  viability, T/C: 64%
[35]
  viability, T/C: 72.2%

## COc1cccc2c1C(=O)c1c(O)c3c(c(O)c1C2=O)CC(O)(C(=O)CO)CC3OC1CC(N)C(O)C(C)O1 (stereo not drawn) + Cc1cncc(-c2nc(NCCc3c[nH]c4ccccc34)c3ncn(C(C)C)c3n2)c1
[1]
  IC50: 266 nM
[2]
  IC50: 380 nM
[3]
  IC50: 175 nM
[4]
  IC50: < 31.6 nM
[5]
  IC50: < 31.6 nM
[6]
  viability, T/C: 64.7%
[7]
  viability, T/C: 57.1%
[8]
  viability, T/C: 48.8%
[9]
  viability, T/C: 20.3%
[10]
  viability, T/C: 1.26%
[11]
  viability, T/C: 0.76%
[12]
  viability, T/C: 61.1%
[13]
  viability, T/C: 65.6%
[14]
  viability, T/C: 56.3%
[15]
  viability, T/C: 15.4%
[16]
  viability, T/C: 1.1%
[17]
  viability, T/C: 0.72%
[18]
  viability, T/C: 58.6%
[19]
  viability, T/C: 55.9%
[20]
  viability, T/C: 43.1%
[21]
  viability, T/C: 10.3%
[22]
  viability, T/C: 1.14%
[23]
  viability, T/C: 0.7%
[24]
  viability, T/C: 48.8%
[25]
  viability, T/C: 50.7%
[26]
  viability, T/C: 37.7%
[27]
  viability, T/C: 2.21%
[28]
  viability, T/C: 1.26%
[29]
  viability, T/C: 0.84%
[30]
  viability, T/C: 5.86%
[31]
  viability, T/C: 6.1%
[32]
  viability, T/C: 9.17%
[33]
  viability, T/C: 0.29%
[34]
  viability, T/C: 0.94%
[35]
  viability, T/C: 0.55%

## O=C(C=Cc1cccc(S(=O)(=O)Nc2ccccc2)c1)NO + CC(CO)NC(=O)c1cc(-c2ccc(Cl)cc2)nn(-c2cnn(C)c2)c1=O
[1]
  IC50: 812 nM
[2]
  IC50: 719 nM
[3]
  IC50: 704 nM
[4]
  IC50: 612 nM
[5]
  IC50: 298 nM
[6]
  viability, T/C: 82.8%
[7]
  viability, T/C: 79.2%
[8]
  viability, T/C: 63.6%
[9]
  viability, T/C: 42.5%
[10]
  viability, T/C: 32.6%
[11]
  viability, T/C: 9.53%
[12]
  viability, T/C: 80.2%
[13]
  viability, T/C: 74.3%
[14]
  viability, T/C: 64.5%
[15]
  viability, T/C: 39.4%
[16]
  viability, T/C: 31.9%
[17]
  viability, T/C: 9.41%
[18]
  viability, T/C: 80.5%
[19]
  viability, T/C: 80.8%
[20]
  viability, T/C: 61%
[21]
  viability, T/C: 42.2%
[22]
  viability, T/C: 28.1%
[23]
  viability, T/C: 9.7%
[24]
  viability, T/C: 73.1%
[25]
  viability, T/C: 72.8%
[26]
  viability, T/C: 58.6%
[27]
  viability, T/C: 39.6%
[28]
  viability, T/C: 28.8%
[29]
  viability, T/C: 6.66%
[30]
  viability, T/C: 67%
[31]
  viability, T/C: 56.6%
[32]
  viability, T/C: 53.8%
[33]
  viability, T/C: 33.7%
[34]
  viability, T/C: 25.6%
[35]
  viability, T/C: 6.56%
